Columns and labels:
Sagittaria pygmaea, L. = assay: Preemergence weed control under flooded paddy conditions, SAGPY (Arrowhead (Pygmaea)); assay type: in vivo; details: preemergence, flooded paddy, rated 3-4 weeks after treatment
[1] = system: Cyperus serotinus, Rottb.; assay: Preemergence weed control under flooded paddy conditions, CYPSE (Flatsedge); assay type: in vivo; details: preemergence, rated 3-4 weeks after treatment
Cyperus iria = assay: Preemergence weed control under flooded paddy conditions, CYPIR (Rice Flatsedge); assay type: in vivo; details: preemergence, flooded paddy, rated 3-4 weeks after treatment
[2] = system: Monochoria vaginalis, Presl.; assay: Preemergence weed control under flooded paddy conditions, MOOVA (Monochoria); assay type: in vivo; details: preemergence, flooded paddy, rated 3-4 weeks after treatment
[3] = system: Echinochloa oryzoides (Ard.) Fritsch.; assay: Preemergence weed control under flooded paddy conditions, ECHORC (Watergrass (Calif.)); assay type: in vivo; details: preemergence, flooded paddy, rated 3-4 weeks after treatment
[4] = system: Oryza sativa, (L.) Tebonnet; assay: Rice tolerance to post-transplant applications under flooded paddy conditions (Example 187), ORYSAT (Rice, Tebonnet); details: rated 3-4 weeks after treatment
Note: meaning of each grade not given here.

| SMILES | herbicidal effect rating, SAGPY (Sagittaria pygmaea, L.; Rate 0.0320 kg/ha) | herbicidal effect rating, SAGPY (Sagittaria pygmaea, L.; Rate 0.0620 kg/ha) | herbicidal effect rating, SAGPY (Sagittaria pygmaea, L.; Rate 0.1250 kg/ha) | herbicidal effect rating, SAGPY (Sagittaria pygmaea, L.; Rate 0.2500 kg/ha) | herbicidal effect rating, CYPSE ([1]; Rate 0.0320 kg/ha) | herbicidal effect rating, CYPSE ([1]; Rate 0.0620 kg/ha) | herbicidal effect rating, CYPSE ([1]; Rate 0.1250 kg/ha) | herbicidal effect rating, CYPSE ([1]; Rate 0.2500 kg/ha) | herbicidal effect rating, CYPIR (Cyperus iria; Rate 0.0320 kg/ha) | herbicidal effect rating, CYPIR (Cyperus iria; Rate 0.0620 kg/ha) | herbicidal effect rating, CYPIR (Cyperus iria; Rate 0.1250 kg/ha) | herbicidal effect rating, CYPIR (Cyperus iria; Rate 0.2500 kg/ha) | herbicidal effect rating, MOOVA ([2]; Rate 0.0320 kg/ha) | herbicidal effect rating, MOOVA ([2]; Rate 0.0620 kg/ha) | herbicidal effect rating, MOOVA ([2]; Rate 0.1250 kg/ha) | herbicidal effect rating, MOOVA ([2]; Rate 0.2500 kg/ha) | herbicidal effect rating, ECHORC ([3]; Rate 0.0320 kg/ha) | herbicidal effect rating, ECHORC ([3]; Rate 0.0620 kg/ha) | herbicidal effect rating, ECHORC ([3]; Rate 0.1250 kg/ha) | herbicidal effect rating, ECHORC ([3]; Rate 0.2500 kg/ha) | further results |
| --- | --- | --- | --- | --- | --- | --- | --- | --- | --- | --- | --- | --- | --- | --- | --- | --- | --- | --- | --- | --- | --- |
| CCCCCCC#CCCOC(=O)COc1ccc(C)cc1-c1nsc2ccc(-n3c(=O)cc(C(F)(F)F)n(C)c3=O)cc12 [Example 522, Acetic acid, {{2-{5-[3,6-dihydro-3-methyl-2,6-dioxo-4-(trifluoromethyl)-1(2H)-pyrimidinyl]-1,2-benzisothiazol-3-yl}-p-tolyl}oxy}-, 3-decynyl ester] | 0.0 | 0.0 | 0.0 | 0.0 | 0.0 | 0.0 | 0.0 | 0.0 | 0.0 | 0.0 | 0.0 | 2.0 | 9.0 | 9.0 | 9.0 | 9.0 | 5.5 | 6.5 | 8.0 | 9.0 | herbicidal effect rating ORYSAT ([4]; Rate 0.0320 kg/ha): 2.5; herbicidal effect rating ORYSAT ([4]; Rate 0.0620 kg/ha): 4.0; herbicidal effect rating ORYSAT ([4]; Rate 0.1250 kg/ha): 4.0; herbicidal effect rating ORYSAT ([4]; Rate 0.2500 kg/ha): 4.5 |
| COCCCOCCCOC(=O)COc1ccc(C)cc1-c1nsc2ccc(-n3c(=O)cc(C(F)(F)F)n(C)c3=O)cc12 [Example 523, Acetic acid, {{2-{5-[3,6-dihydro-3-methyl-2,6-dioxo-4-(trifluoromethyl)-1(2H)-pyrimidinyl]-1,2-benzisothiazol-3-yl}-p-tolyl}oxy}-, 3-(3-methoxypropoxy)propyl ester] | 0.0 | 0.0 | 0.0 | 0.0 | 0.0 | 0.0 | 2.0 | 9.0 | 0.0 | 2.0 | 4.0 | 8.0 | 8.0 | 9.0 | 9.0 | 9.0 | 6.0 | 8.0 | 8.0 | 9.0 | herbicidal effect rating ORYSAT ([4]; Rate 0.0320 kg/ha): 4.5; herbicidal effect rating ORYSAT ([4]; Rate 0.0620 kg/ha): 4.5; herbicidal effect rating ORYSAT ([4]; Rate 0.1250 kg/ha): 5.5; herbicidal effect rating ORYSAT ([4]; Rate 0.2500 kg/ha): 7.0 |
| Cc1ccc(OCC(=O)OCC(C)(C)Cc2ccccc2)c(-c2nsc3ccc(-n4c(=O)cc(C(F)(F)F)n(C)c4=O)cc23)c1 [Example 527, Acetic acid, {{2-{5-[3,6-dihydro-3-methyl-2,6-dioxo-4-(trifluoromethyl)-1(2H)-pyrimidinyl)-1,2-benzisothiazol-3-yl}-p-tolyl}oxy}-, 2,2-dimethyl-3-phenylpropyl ester] | 0.0 | 0.0 | 0.0 | 0.0 | 0.0 | 0.0 | 0.0 | 0.0 | 2.0 | 2.0 | 4.0 | 4.0 | 9.0 | 9.0 | 9.0 | 9.0 | 3.0 | 8.0 | 9.0 | 9.0 | herbicidal effect rating ORYSAT ([4]; Rate 0.0320 kg/ha): 2.0; herbicidal effect rating ORYSAT ([4]; Rate 0.0620 kg/ha): 2.5; herbicidal effect rating ORYSAT ([4]; Rate 0.1250 kg/ha): 2.5; herbicidal effect rating ORYSAT ([4]; Rate 0.2500 kg/ha): 4.0 |
| CC=CCOC(=O)C(C)(C)Oc1ccc(C)cc1-c1nsc2ccc(-n3c(=O)cc(C(F)(F)F)n(C)c3=O)cc12 [Example 529, Propionic acid, 2-{{2-{5-[3,6-dihydro-3-methyl-2,6-dioxo-4-(trifluoromethyl)-1(2H)-pyrimidinyl]-1,2-benzisothiazol-3-yl}-p-tolyl}oxy}-2-methyl-, 2-butenyl ester] | 9.0 | 9.0 | 9.0 | 9.0 | 0.0 | 0.0 | 0.0 | 0.0 | 3.0 | 3.0 | 3.0 | 0.0 | 3.0 | 3.0 | 3.0 | 0.0 | 7.0 | 9.0 | 9.0 | 9.0 | herbicidal effect rating ORYSAT ([4]; Rate 0.0320 kg/ha): 0.0; herbicidal effect rating ORYSAT ([4]; Rate 0.0620 kg/ha): 0.0; herbicidal effect rating ORYSAT ([4]; Rate 0.1250 kg/ha): 3.0; herbicidal effect rating ORYSAT ([4]; Rate 0.2500 kg/ha): 9.0 |
| C=CCOC(=O)C(C)(C)Oc1ccc(C)cc1-c1nsc2ccc(-n3c(=O)cc(C(F)(F)F)n(C)c3=O)cc12 [Example 530, Propionic acid, 2-{{2-{5-[3,6-dihydro-3-methyl-2,6-dioxo-4-(trifluoromethyl)-1(2H)-pyrimidinyl]-1,2-benzisothiazol-3-yl}-p-tolyl}oxy}-2-methyl-, allyl ester] | 0.0 | 0.0 | 3.0 | 9.0 | 0.0 | 0.0 | 0.0 | 0.0 | 0.0 | 9.0 | 9.0 | 9.0 | 9.0 | 9.0 | 9.0 | 9.0 | 9.0 | 9.0 | 9.0 | 9.0 | herbicidal effect rating ORYSAT ([4]; Rate 0.0320 kg/ha): 0.0; herbicidal effect rating ORYSAT ([4]; Rate 0.0620 kg/ha): 0.0; herbicidal effect rating ORYSAT ([4]; Rate 0.1250 kg/ha): 3.0; herbicidal effect rating ORYSAT ([4]; Rate 0.2500 kg/ha): 9.0 |
